The values that follow come from PubChem BioAssay (NCI).

Test systems include SR leukemia; SF-539 CNS; HS 578T breast; SNB-75 CNS; SNB-19 CNS; MDA-MB-231 breast; M14 melanoma; NCI/ADR-RES ovarian; T-47D breast; LOX IMVI melanoma.
What all share (experiment): growth of human tumour cells (NCI), 48 h

Each structure is given as a SMILES string.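 Five compound concentrations were applied to cells in 96-well plates for 48 hours; endpoints were derived by simple linear interpolation of the resulting dose-response curve. The concentration for full growth arrest is given as TGI.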

For `CC(O)=NC(Cc1ccc2ccccc2c1)C(O)=NC(Cc1ccc(Cl)cc1)C(O)=NC(Cc1c[nH]c2ccccc12)C(O)=NC(CO)C(O)=NC(Cc1ccc(O)cc1)C(O)=NC(CCCN=C(N)N)C(O)=NC(CC(C)C)C(O)=NC(CCCN=C(N)N)C(=O)N1CCCC1C(O)=NC(C)C(=N)O` (stereo not drawn), the TGI was over 100 µM in the assay on SR leukemia; 99.7 µM in the assay with SF-539 CNS; over 100 µM in the assay on HS 578T breast; over 100 µM in the assay with SNB-75 CNS; over 100 µM with SNB-19 CNS; over 100 µM with MDA-MB-231 breast. The TGI in the assay with M14 melanoma and in the assay with NCI/ADR-RES ovarian was over 100 µM each time.
As for `CCOC(=O)[C@H]1C[C@]23CN(C(=O)OC(C)(C)C)CC[C@H]2CCC2(SCCCS2)[C@@H]3N1C`, the TGI in the assay on SR leukemia was 76.5 µM; with SF-539 CNS, over 100 µM; in the assay with HS 578T breast, over 100 µM; in the assay on SNB-75 CNS it was over 100 µM; in the assay on SNB-19 CNS, over 100 µM; in the assay with T-47D breast, over 100 µM. Also, the TGI with M14 melanoma, with NCI/ADR-RES ovarian and with LOX IMVI melanoma was over 100 µM throughout.
In the case of `COc1c2ccoc2c(S(=O)(=O)Nc2ccc(Cl)cc2)c2oc(C)cc(=O)c12`, the TGI was over 93.9 µM in the assay with SF-539 CNS; 76.4 µM in the assay on SNB-75 CNS; over 100 µM in the assay with SNB-19 CNS; over 100 µM with NCI/ADR-RES ovarian; over 100 µM in the assay with LOX IMVI melanoma.
`OC1(c2ccc3ccccc3c2)c2ccc3ccccc3c2C2=NCCN21` (stereo not drawn): the TGI in the assay on SR leukemia was over 100 µM; in the assay on SF-539 CNS, over 100 µM; in the assay with HS 578T breast it was 53 µM; in the assay with SNB-75 CNS it was 46.9 µM; in the assay with SNB-19 CNS it was over 100 µM; with MDA-MB-231 breast, over 100 µM. The TGI in the assay with T-47D breast, with M14 melanoma, with NCI/ADR-RES ovarian and in the assay on LOX IMVI melanoma was over 100 µM throughout.
With `Cc1onc(-c2c(F)cccc2Cl)c1C(=O)N[C@@H]1C(=O)N2[C@@H]1SC(C)(C)[C@@H]2C(=O)O`, the TGI in the assay with SR leukemia, in the assay on SF-539 CNS, in the assay with HS 578T breast, in the assay on SNB-75 CNS, with SNB-19 CNS and in the assay with MDA-MB-231 breast was over 100 µM each time. Moreover, the TGI in the assay with T-47D breast, in the assay with M14 melanoma and in the assay on NCI/ADR-RES ovarian was over 100 µM each time.
Consider `ClCC1(CCl)COC1`, for which the TGI in the assay with SR leukemia, with HS 578T breast, in the assay on SNB-75 CNS, in the assay with SNB-19 CNS, in the assay with MDA-MB-231 breast and in the assay with T-47D breast was over 100 µM throughout. In addition, the TGI in the assay on M14 melanoma, in the assay with NCI/ADR-RES ovarian and with LOX IMVI melanoma was over 100 µM throughout.
As to `O=C(/N=C/c1c(O)c2ccccc2oc1=O)NC1CCCCC1`, the TGI in the assay with SR leukemia, with SF-539 CNS, with SNB-19 CNS, in the assay on M14 melanoma and in the assay with LOX IMVI melanoma was over 100 µM throughout.
Regarding `COc1cc(NCc2ccc3n2-c2ccccc2OC3)cc(OC)c1OC`, the TGI in the assay on SR leukemia was 35.6 µM; with HS 578T breast it was over 100 µM; in the assay with SNB-75 CNS it was 62.4 µM; in the assay with SNB-19 CNS, over 100 µM; in the assay on MDA-MB-231 breast it was 34.1 µM; with T-47D breast, over 100 µM. The TGI in the assay with M14 melanoma was over 100 µM; in the assay with NCI/ADR-RES ovarian, 22.5 µM; in the assay on LOX IMVI melanoma it was 27.4 µM.
Regarding `CCCC(=O)OCC(O)CO` (stereo not drawn), the TGI in the assay on SR leukemia, in the assay on SF-539 CNS, in the assay on SNB-75 CNS, with M14 melanoma and in the assay on LOX IMVI melanoma was over 5000 µM throughout.
With `CCOc1ccc2c(c1)NC(=O)C(C1OC(c3ccccc3)=CC1=O)S2` (stereo not drawn), the TGI was 46.1 µM in the assay on SR leukemia; 45 µM with SF-539 CNS; 86 µM in the assay on HS 578T breast; over 100 µM in the assay on SNB-19 CNS; 60.5 µM in the assay on MDA-MB-231 breast; 36.3 µM in the assay on T-47D breast. For the same compound, the TGI in the assay with M14 melanoma is over 100 µM; with NCI/ADR-RES ovarian, 67.1 µM; in the assay with LOX IMVI melanoma it was 67 µM.
In the case of `CO[C@]12C[C@H](CNC(=O)c3cc(Br)c(Br)[nH]3)O[C@H]1NC(=O)N2`, the TGI in the assay with SR leukemia, in the assay with SF-539 CNS, in the assay on HS 578T breast, in the assay on SNB-75 CNS, in the assay with SNB-19 CNS and with MDA-MB-231 breast was over 100 µM in each case. The TGI in the assay on T-47D breast, in the assay on M14 melanoma, in the assay with NCI/ADR-RES ovarian and in the assay on LOX IMVI melanoma was over 100 µM in each case.
Take `CC[N+](CC)(CC)/C(=N/S(=O)(=O)c1cc(C)c(Cl)cc1S)[N-]S(=O)(=O)c1ccc(Cl)cc1`: the TGI in the assay on SF-539 CNS, in the assay on HS 578T breast, in the assay on MDA-MB-231 breast, in the assay on T-47D breast, in the assay on M14 melanoma and in the assay with NCI/ADR-RES ovarian was over 100 µM throughout. The compound also gave a TGI in the assay with LOX IMVI melanoma of over 100 µM.
Take `Cc1ccc(S(=O)(=O)NCCSS(=O)(=O)c2ccc(C)cc2)cc1`: the TGI in the assay with SR leukemia was 39 µM; in the assay with HS 578T breast, over 100 µM; in the assay with SNB-75 CNS it was 77.2 µM; in the assay with SNB-19 CNS, over 100 µM; in the assay on MDA-MB-231 breast it was over 100 µM; in the assay on T-47D breast, 53.9 µM. Besides, the TGI in the assay with NCI/ADR-RES ovarian was 72.3 µM; with LOX IMVI melanoma, 53.5 µM.
